Measured values from EPA's ToxValDB 9.5.
Where “and” joins values, the source holds several entries; their conditions need not be identical. Identical values can stand only once.

Key:
Rattus norvegicus [1] = details: M/F
Mus musculus = details: for LD50: acute
Rattus norvegicus [2] = details: for LD50 / LC50: acute
Rattus norvegicus [3] = details: oral
Oryctolagus sp. = details: acute
Rattus norvegicus [4] = details: for NOAEL: oral
Rattus norvegicus [5] = system: Rattus norvegicus
[6] = subchronic, oral, kidney lesions
[7] = chronic, duration: 2 years, oral, diet, reduced body weight
[8] = short-term, duration: 28 days, oral, diet, Sprague-Dawley
[9] = short-term, duration: 28 days, gavage, M, Sprague-Dawley, Clinical Observation: Locomotor activity decrease, Salivation + Blood Chemistry: Ch E decrease
[10] = subchronic, duration: 90 days, oral, diet, increased liver weight, serum cholesterol, hepatic aminopyrine n-demethylase activity, and alanine transaminase levels
[11] = reproduction developmental, oral, reduced body weight gain in f1 females
[12] = subchronic, duration: 13 weeks, oral, gavage, decreased testis weight and altered spermatogenesis in males. + Increased heart weight in females and males
[13] = chronic, duration: 2 years, oral, diet, increased liver weight
[14] = developmental, duration: 10 days, oral, gavage, Sprague-Dawley
[15] = reproduction developmental, duration: 10 days, oral, gavage, F, Sprague-Dawley

C[CH2][Pb]([CH2]C)([CH2]C)[CH2]C [Tetraethyl lead]
LOAEL (Rattus norvegicus [1]; subchronic, oral, histopathology: liver and thymus): 0.0017 mg/kg-day

CC(C)=CC1C(C(=O)OCc2coc(Cc3ccccc3)c2)C1(C)C (stereo unspecified) [Resmethrin]
LEL (Rattus norvegicus [1]; reproduction developmental, oral, reproductive toxicity): 25 mg/kg-day

CCCCCCCCCCCCCCC [Pentadecane]
LD50 (Mus musculus; injection, intravenous): 3490 mg/kg

Clc1cc(Cl)c(Cl)cc1Cl [1,2,4,5-Tetrachlorobenzene]
LOAEL (Rattus norvegicus [1]; [6]): 3.4 mg/kg-day
NOAEL (Rattus norvegicus [1]; [6]): 0.34 mg/kg-day

C=CC(=O)NCO [N-Methylolacrylamide]
LD50 (Mus musculus; oral, DD): 677 mg/kg
LD50 (Mus musculus; oral, gavage, B6C3F1): 400 mg/kg
NOAEL (Mus musculus; short-term, duration: 16 days, oral, gavage, B6C3F1): 100 mg/kg-day
NOAEL (Mus musculus; subchronic, duration: 90 days, oral, gavage, B6C3F1): 12.5 mg/kg-day
LD50 (Rattus norvegicus [2]; oral, gavage, Fischer 344): 400 mg/kg
NOAEL (Rattus norvegicus [2]; short-term, duration: 16 days, oral, gavage, Fischer 344): 50 mg/kg-day
NOAEL (Rattus norvegicus [2]; short-term, duration: 28 days, oral, diet): 4 mg/kg-day
NOAEL (Rattus norvegicus [2]; subchronic, duration: 90 days, oral, gavage, Fischer 344): 12.5 mg/kg-day
NOEL (Rattus norvegicus [3]; subchronic, duration: 13 weeks, gavage, M/F, Fischer 344, Deaths + Clinical Observation: Hind limb paresis + Functional Observational Battery: Hind limb-grip strength decrease Auditory startle …): < 12.5 mg/kg-day

COC(=O)c1ccccc1S(=O)(=O)NC(=O)Nc1nc(C)nc(OC)n1 [Metsulfuron-methyl]
LEL (Rattus norvegicus [1]; [7]): 250 mg/kg-day
NOEL (Rattus norvegicus [1]; [7]): 25 mg/kg-day

Cc1ccc(OP(=O)(Oc2ccc(C)cc2)Oc2ccc(C)cc2)cc1.Cc1cccc(OP(=O)(Oc2cccc(C)c2)Oc2cccc(C)c2)c1.Cc1ccccc1OP(=O)(Oc1ccccc1C)Oc1ccccc1C [Tris(methylphenyl) phosphate]
LD50 (Oryctolagus sp.; dermal): > 10000 mg/kg
LC50 (Rattus norvegicus [2]; Inhalation, Sprague-Dawley): > 5.2 µg/mL
LC50 (Rattus norvegicus [2]; inhalation, Wistar): < 200 µg/mL
LD50 (Rattus norvegicus [2]; oral, gavage, Wistar): > 20000 mg/kg
LOAEL (% diet) (Rattus norvegicus [2]; [8]): 0.5
NOAEL (% diet) (Rattus norvegicus [2]; [8]): 0.1
NOAEL (Rattus norvegicus [3]; [9]): 200 mg/kg-day
NOEL (Rattus norvegicus [3]; [9]): < 40 mg/kg-day
NOEL (Rattus norvegicus [3]; subchronic, duration: 13 weeks, diet, F, Fischer 344, Clinical Observation: Emaciation + Body Weight Changes: decrease + Food Consumption: decrease + Hematology: Hct decrease, RBC decrease, Hgb …): 65 mg/kg-day
NOEL (Rattus norvegicus [3]; subchronic, duration: 13 weeks, diet, M/F, Fischer 344, Clinical Observation: Emaciation + Body Weight Changes: decrease + Food Consumption: decrease + Hematology: Hct decrease, RBC decrease, Hgb …): < 86.4 mg/kg-day
NOEL (Rattus norvegicus [3]; subchronic, duration: 13 weeks, gavage, M/F, Fischer 344, Body Weight Changes: decrease + Hematology: Hct decrease, Hgb decrease, RBC decrease + Blood Chemistry: Ch E decrease + Absolute Organ …): < 50 mg/kg-day

CC(C)(C)[C@H](O)[C@H](Cc1ccc(Cl)cc1)n1cncn1 (racemic) [Paclobutrazol]
LEL (Rattus norvegicus [1]; [10]): 62.5 mg/kg-day
NOEL (Rattus norvegicus [1]; [10]): 12.5 mg/kg-day

CNC(=O)N(C)c1nnc(C(C)(C)C)s1 [Tebuthiuron]
LEL (Rattus norvegicus [1]; [11]): 14 mg/kg-day
NOEL (Rattus norvegicus [1]; [11]): 7 mg/kg-day

C=C(Cl)CCl [2,3-Dichloro-1-propene]
LOAEL (Rattus norvegicus [4]; short-term, duration: 11 days, inhalation, M/F, Fischer 344, respiratory): 22.7 mg/m3

O=C([O-])CF.[Na+] [Sodium fluoroacetate]
LOAEL (Rattus norvegicus [1]; [12]): 0.2 mg/kg-day
NOAEL (Rattus norvegicus [1]; [12]): 0.05 mg/kg-day

[Mo] [Molybdenum]
NOAEL (Rattus norvegicus [4]; subchronic, duration: 90 days, diet, M/F, Sprague-Dawley, renal): 17 mg/kg-day

CC1(C)C(C=C(Cl)Cl)C1C(=O)OCc1cccc(Oc2ccccc2)c1 (stereo unspecified) [Permethrin]
LEL (Rattus norvegicus [1]; [13]): 25 mg/kg-day
NOEL (Rattus norvegicus [1]; [13]): 5 mg/kg-day
NOAEL (Rattus norvegicus [4]; acute, duration: 1 days, gavage, M/F, Long-Evans, neurological): 25 mg/kg-day
NOAEL (Rattus norvegicus [4]; subchronic, duration: 13 weeks, diet, M/F, Sprague-Dawley, neurological): 15.5 mg/kg-day
NOEL (Rattus norvegicus [5]; Hershberger, duration: 10 days, oral, gavage, Sprague-Dawley, inactive + Negative + Negative + neither + no effects on PPS, AST, testis/epididymal wt, serum testosterone, and liver wt increased 11% at …): 120 mg/kg-day
LEL (Rattus norvegicus [5]; uterotrophic, duration: 3 days, injection, subcutaneous, Active): 800 mg/kg-day

c1ccc(NNc2ccccc2)cc1 [1,2-Diphenylhydrazine]
NOAEL (Rattus norvegicus [4]; subchronic, duration: 13 weeks, diet, M, Fischer 344, hepatic): 4.8 mg/kg-day

CCOC(C)(C)C [Ethyl t-butyl ether]
NOAEL (Rattus norvegicus [1]; chronic, duration: 2 years, inhalation, Fischer 344, Increased absolute kidney weight in female rats): 6270 mg/m3

COC(=O)Nc1cccc(OC(=O)Nc2cccc(C)c2)c1 [Phenmedipham]
NOAEL (Rattus norvegicus [1]; chronic, duration: 2 years, oral, diet, no effects): 25 mg/kg-day

Clc1ccc(C(Cl)(Cl)Cl)cn1 [2-Chloro-5-trichloromethylpyridine]
NOAEL (Mus musculus; short-term, duration: 2 weeks, inhalation, B6C3F1): 9.44 mg/m3
LC50 (Rattus norvegicus [2]; Inhalation, Fischer 344): > 108 mg/m3
LD50 (Rattus norvegicus [2]; oral, gavage, Sprague-Dawley): ≥ 500 mg/kg and ≤ 1000 mg/kg
NOAEL (Rattus norvegicus [2]; short-term, duration: 2 weeks, Inhalation, Fischer 344): 9.44 mg/m3

C=C1C2CCC(C2)C1(C)C (stereo unspecified) [Camphene]
LD50 (Oryctolagus sp.; dermal, New Zealand): > 2500 mg/kg
LD50 (Rattus norvegicus [2]; oral, Wistar): > 5000 mg/kg
NOAEL (Rattus norvegicus [2]; [14]): 1000 mg/kg-day
NOAEL (Rattus norvegicus [2]; [15]): 250 mg/kg-day
NOAEL (Rattus norvegicus [2]; short-term, duration: 28 days, oral, gavage, F, Wistar): 250 mg/kg-day
NOAEL (Rattus norvegicus [2]; short-term, duration: 28 days, oral, gavage, M, Wistar): 62.5 mg/kg-day
LOAEL (Rattus norvegicus [2]; short-term, duration: 28 days, oral, gavage, Wistar): 1000 mg/kg-day

O=P(OC(CCl)CCl)(OC(CCl)CCl)OC(CCl)CCl [Tris(1,3-dichloro-2-propyl) phosphate]
LD50 (Oryctolagus sp.; dermal): > 4640 mg/kg
LD50 (Oryctolagus sp.; oral, gavage, Dutch-belted): 6800 mg/kg
LD50 (Rattus norvegicus [2]; oral, gavage, Sprague-Dawley): 3160 mg/kg
NOAEL (Rattus norvegicus [2]; chronic, duration: 12 months, oral, diet, Sprague-Dawley): 5 mg/kg-day
NOAEL (Rattus norvegicus [2]; [14]): 100 mg/kg-day
NOAEL (Rattus norvegicus [2]; [15]): 25 mg/kg-day
